{
  "source": "patent US11254663B2",
  "about": "(BRISTOL-MYERS SQUIBB COMPANY, priority 2019, dated 2022)",
  "data": [
    {"target": "FXR (Homo sapiens (Human), UniProt Q96RI1)", "sequence (Q96RI1 262-486)": "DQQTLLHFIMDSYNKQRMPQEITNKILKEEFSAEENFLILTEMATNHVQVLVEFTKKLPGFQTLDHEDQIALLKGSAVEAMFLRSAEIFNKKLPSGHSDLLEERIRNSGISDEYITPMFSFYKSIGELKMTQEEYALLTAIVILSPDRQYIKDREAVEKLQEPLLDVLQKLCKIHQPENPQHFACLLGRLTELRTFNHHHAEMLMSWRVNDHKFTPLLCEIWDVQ", "assay": "transient human FXR/Gal4-luciferase reporter assay", "assay_type": "cell-based", "settings": "not given", "outline": "(§1)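 HEK293 cells stably carrying a 5×Gal4 response element–firefly luciferase reporter were transiently transfected overnight with a Gal4 DBD–human FXR LBD fusion plasmid. Compound was added in DMSO and cells were incubated overnight at 37 °C, 5% CO2. Activity was read as Steady-Glo luminescence.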", "units": {"EC50": "nM"}, "values": [
      {"smiles": "O=C(N(CC12CCC(c3ccc(C(F)(F)F)cn3)(CC1)CC2)c1cccc(-c2cnc(C3CC3)nc2)c1)C12CC(F)(C1)C2", "note": "[Example 490, N-(3-(2-cyclopropylpyrimidin-5-yl)phenyl)-3-fluoro-N-((4-(5-(trifluoromethyl)pyridin-2-yl)bicyclo[2.2.2]octan-1-yl)methyl)bicyclo[1.1.1]pentane-1-carboxamide]", "EC50": 334},
      {"smiles": "CC(C)(O)c1ccc(-c2cccc(N(CC34CCC(c5noc(C(C)(C)F)n5)(CC3)CC4)C(=O)NCC3(S(C)(=O)=O)CC3)c2)cc1", "note": "[Example 642]", "EC50": 294}
    ]},
    {"target": "FXR (Homo sapiens (Human), UniProt Q96RI1)", "assay": "transient human FXR/Gal4-luciferase reporter assay", "assay_type": "cell-based", "settings": "Gal4-hFXR fusion construct, HEK293 reporter cells; response relative to 8 μM GW-4064", "outline": "as §1", "units": {"EC50": "nM"}, "values": [
      {"smiles": "CCOc1cnc(-c2cccc(N(CC34CCC(c5noc(C(C)(C)C)n5)(CC3)CC4)C(=O)C34CC(F)(C3)C4)c2)nc1", "note": "[Example 451, N-((4-(5-(tert-butyl)-1,2,4-oxadiazol-3-yl)bicyclo[2.2.2]octan-1-yl)methyl)-N-(3-(5-ethoxypyrimidin-2-yl)phenyl)-3-fluorobicyclo[1.1.1]pentane-1-carboxamide]", "EC50": 47},
      {"smiles": "COc1nccc(-c2cccc(N(CC34CCC(c5nc(C6CC6)no5)(CC3)CC4)C(=O)C3CCC(F)(F)C3)c2)n1", "note": "(stereo not drawn) [Example 245, N-((4-(3-cyclopropyl-1,2,4-oxadiazol-5-yl)bicyclo[2.2.2]octan-1-yl)methyl)-3,3-difluoro-N-(3-(2-methoxypyrimidin-4-yl)phenyl)cyclopentane-1-carboxamide]", "EC50": 538},
      {"smiles": "CC(C)Oc1ccc(-c2cccc(N(CC34CCC(c5cc(C(C)(F)F)nn5C)(CC3)CC4)C(=O)NC(C)(C)C)c2)cc1", "note": "[Example 659, 3-(tert-butyl)-1-((4-(3-(1,1-difluoroethyl)-1-methyl-1H-pyrazol-5-yl)bicyclo[2.2.2]octan-1-yl)methyl)-1-(4′-isopropoxy-[1,1′-biphenyl]-3-yl)urea]", "EC50": 53},
      {"smiles": "N#Cc1cnc2ccc(-c3cccc(N(CC45CCC(c6nc(C7CC7)no6)(CC4)CC5)C(=O)C45CC(F)(C4)C5)c3)nn12", "note": "[Example 306, N-(3-(3-cyanoimidazo[1,2-b]pyridazin-6-yl)phenyl)-N-((4-(3-cyclopropyl-1,2,4-oxadiazol-5-yl)bicyclo[2.2.2]octan-1-yl)methyl)-3-fluorobicyclo[1.1.1]pentane-1-carboxamide]", "EC50": 386},
      {"smiles": "COc1cc(-c2cccc(N(CC34CCC(C(=O)NC5CC5)(CC3)CC4)C(=O)C34CC(F)(C3)C4)c2)ccn1", "note": "[Example 570, N-cyclopropyl-4-((3-fluoro-N-(3-(2-methoxypyridin-4-yl)phenyl)bicyclo[1.1.1]pentane-1-carboxamido)methyl)bicyclo[2.2.2]octane-1-carboxamide]", "EC50": 926},
      {"smiles": "CC(C)(C)c1nc(C23CCC(CN(C(=O)C45CC(F)(C4)C5)c4cccc(-c5ccc(OC(F)F)cc5)c4)(CC2)CC3)no1", "note": "[Example 444, N-((4-(5-(tert-butyl)-1,2,4-oxadiazol-3-yl)bicyclo[2.2.2]octan-1-yl)methyl)-N-(4′-(difluoromethoxy)-[1,1′-biphenyl]-3-yl)-3-fluorobicyclo[1.1.1]pentane-1-carboxamide]", "EC50": 61},
      {"smiles": "CC(C)(F)c1nc(C23CCC(CN(C(=O)O[C@H]4C[C@](O)(C(F)(F)F)C4)c4cc(-c5ccc(OC(F)F)cc5)c(F)cn4)(CC2)CC3)no1", "note": "[Example 629, (cis)-3-hydroxy-3-(trifluoromethyl)cyclobutyl (4-(4-(difluoromethoxy)phenyl)-5-fluoropyridin-2-yl)((4-(5-(2-fluoropropan-2-yl)-1,2,4-oxadiazol-3-yl)bicyclo[2.2.2]octan-1-yl)methyl)carbamate]", "EC50": 99},
      {"smiles": "O=C(N(CC12CCC(c3nc(C4CC4)no3)(CC1)CC2)c1cccc(-c2ccn3ncnc3c2)c1)C12CC(F)(C1)C2", "note": "[Example 298, N-(3-([1,2,4]triazolo[1,5-a]pyridin-7-yl)phenyl)-N-((4-(3-cyclopropyl-1,2,4-oxadiazol-5-yl)bicyclo[2.2.2]octan-1-yl)methyl)-3-fluorobicyclo[1.1.1]pentane-1-carboxamide]", "EC50": 1680},
      {"smiles": "COc1cc(-c2cccc(N(CC34CCC(c5nnc(C)s5)(CC3)CC4)C(=O)C3CC(O)(C(F)(F)F)C3)c2)ccn1", "note": "[Example 236, (1S,3S)-3-hydroxy-N-(3-(2-methoxypyridin-4-yl)phenyl)-N-((4-(5-methyl-1,3,4-thiadiazol-2-yl)bicyclo[2.2.2]octan-1-yl)methyl)-3-(trifluoromethyl)cyclobutane-1-carboxamide]", "EC50": 1540},
      {"smiles": "O=C(N(CC12CCC(c3nc(C4CC4)no3)(CC1)CC2)c1cccc(-c2ccc(F)cn2)c1)C12CC(F)(C1)C2", "note": "[Example 287, N-((4-(3-cyclopropyl-1,2,4-oxadiazol-5-yl)bicyclo[2.2.2]octan-1-yl)methyl)-3-fluoro-N-(3-(5-fluoropyridin-2-yl)phenyl)bicyclo[1.1.1]pentane-1-carboxamide]", "EC50": 316},
      {"smiles": "O=C(N(CC12CCC(c3noc(C(F)(F)F)n3)(CC1)CC2)c1cccc(-c2cnc(C3CC3)nc2)c1)C12CC(F)(C1)C2", "note": "[Example 580, N-(3-(2-cyclopropylpyrimidin-5-yl)phenyl)-3-fluoro-N-((4-(5-(trifluoromethyl)-1,2,4-oxadiazol-3-yl)bicyclo[2.2.2]octan-1-yl)methyl)bicyclo[1.1.1]pentane-1-carboxamide]", "EC50": 160},
      {"smiles": "CC(C)c1noc(C23CCC(CN(C(=O)C45CC(F)(C4)C5)c4cccc(-c5ccc(C(F)(F)F)cc5)c4)(CC2)CC3)n1", "note": "[Example 380, 3-fluoro-N-((4-(3-isopropyl-1,2,4-oxadiazol-5-yl)bicyclo[2.2.2]octan-1-yl)methyl)-N-(4′-(trifluoromethyl)-[1,1′-biphenyl]-3-yl)bicyclo[1.1.1]pentane-1-carboxamide]", "EC50": 283},
      {"smiles": "O=C(N(CC12CCC(c3ccc(C(F)(F)F)cn3)(CC1)CC2)c1cccc(-c2ccc(OC(F)F)cn2)c1)C12CC(F)(C1)C2", "note": "[Example 495, N-(3-(5-(difluoromethoxy)pyridin-2-yl)phenyl)-3-fluoro-N-((4-(5-(trifluoromethyl)pyridin-2-yl)bicyclo[2.2.2]octan-1-yl)methyl)bicyclo[1.1.1]pentane-1-carboxamide]", "EC50": 271},
      {"smiles": "COc1ccc(C23CCC(CN(C(=O)C45CC(F)(C4)C5)c4cccc(-c5ccc6nc(C)sc6c5)c4)(CC2)CO3)cc1", "note": "[Example 556, 3-Fluoro-N-((1-(4-methoxyphenyl)-2-oxabicyclo[2.2.2]octan-4-yl)methyl)-N-(3-(2-methylbenzo[d]thiazol-6-yl)phenyl)bicyclo[1.1.1]pentane-1-carboxamide]", "EC50": 816},
      {"smiles": "Cc1nc2ccc(-c3cccc(N(CC45CCC(c6nc(C7CC7)no6)(CC4)CC5)C(=O)C45CC(F)(C4)C5)c3)cc2o1", "note": "[Example 275, N-((4-(3-cyclopropyl-1,2,4-oxadiazol-5-yl)bicyclo[2.2.2]octan-1-yl)methyl)-3-fluoro-N-(3-(2-methylbenzo[d]oxazol-6-yl)phenyl)bicyclo[1.1.1]pentane-1-carboxamide]", "EC50": 58.7},
      {"smiles": "COc1ccc(-c2cccc(N(CC34CCC(c5nc(C(C)C)no5)(CC3)CC4)C(=O)C34CC(F)(C3)C4)c2)cc1", "note": "[Example 377, 3-fluoro-N-((4-(3-isopropyl-1,2,4-oxadiazol-5-yl)bicyclo[2.2.2]octan-1-yl)methyl)-N-(4′-methoxy-[1,1′-biphenyl]-3-yl)bicyclo[1.1.1]pentane-1-carboxamide]", "EC50": 52}
    ]}
  ]
}
